Results published in patent US20040116456A1, “Remedies for psychoneurosis” (priority 2001, published 2004).
Structures can show the parent of a compound that is named as a salt.

Test system: restless legs syndrome
Assay: Oral preparation given to patients diagnosed with restless legs syndrome
Assay type: in vivo, human
Conditions: 10 μg oral soft capsule; for time until abnormal sensation disappeared after taking the preparation: RLS patient
Protocol: A solution containing 10 μg of (−)-17-(cyclopropylmethyl)-3,14β-dihydroxy-4,5α-epoxy-6β[N-methyl-trans-3-(3-furyl)acrylamide]morphinan hydrochloric acid salt 1 [drawing 10]
was encapsulated into a soft capsule made of gelatin to obtain an oral preparation. This oral preparation was administered to two patients who had been diagnosed as restless legs syndrome. Both of the two patients complained abnormal itchy sensation on the lower limbs and sleep is sometimes disturbed. By taking the oral preparation, the abnormal sensation disappeared 2 hours after taking the preparation in one patient, and 4 hours after taking the preparation in another patient.

CN(C(=O)/C=C/c1ccoc1)[C@@H]1CC[C@@]2(O)C3Cc4ccc(O)c5c4[C@@]2(CCN3CC2CC2)[C@H]1O5 (single isomer, unassigned; (-)) [Compound 1, (−)-17-(cyclopropylmethyl)-3,14β-dihydroxy-4,5α-epoxy-6β[N-methyl-trans-3-(3-furyl)acrylamide]morphinan hydrochloric acid salt]
time until abnormal sensation disappeared after taking the preparation (another patient): 4 h | time until abnormal sensation disappeared after taking the preparation (one patient): 2 h | duration of the effect for eliminating the abnormal sensation (both of the two RLS patients): ≥ 24 h | sleep disturbance in the night (both of the two RLS patients): sleep disturbance did not occur | therapeutic effect against restless legs syndrome (two RLS patients): clearly had therapeutic effect against restless legs syndrome
